{"source": "patent US10758744B2", "about": "“Combination of an oxidant and a photoactivator for the wounds” (KLOX TECHNOLOGIES INC., priority 2008, dated 2020)", "tested_on": "Hep G2 human hepatocellular carcinoma cells", "details": "24 hours, 0.001 to 100 μM, compared to untreated cells", "description": "Hep G2 cells were treated for 24 hours with increasing concentrations (0.001 to 100 μM) of Eosin Y, or left untreated (CTL).\nHep G2 cells were treated for 24 hours with increasing concentrations (0.001 to 100 μM) of Erythrosine B, or left untreated (CTL). Staurosporine (STS) was used as a positive control inducing cellular mortality.\nThe toxicity of the photoactivators Eosin Y and Erythrosine B was evaluated by measuring the cytotoxicity of these compounds on human cells. Hep G2 human hepatocellular carcinoma cells with an epithelial morphology were treated for 24 hours with increasing concentrations (0.001 to 100 μM) of Eosin Y or Erythrosine B, and the cellular survival was evaluated."}
{"smiles": "CN[C@@H]1C[C@H]2O[C@@](C)([C@@H]1OC)n1c3ccccc3c3c4c(c5c6ccccc6n2c5c31)C(=O)NC4", "note": "[Staurosporine]", "values": [{"measurement": "cellular viability", "result": "caused a dose-dependent effect"}]}
